The source of these data is patent US20140112886A1, “DINUCLEOTIDE COMPOUNDS FOR HCV INFECTION” (IDENIX PHARMACEUTICALS, INC., priority 2012, published 2014).

Data set [1] is described as follows: in vitro. The settings on record: human.
Data set [2] deals with HCV genotype 1b replicon. The data set can be described thus: microbe, parasite or virus in culture. The conditions noted are these: Hepatitis C virus, 72 h, read-out: HCV Replicon EC50. It counts as cell-based.
A short description of data set [3]: Cytotoxicity evaluation, CellTiter-Blue Cell Viability Assay. The settings on record: human, Zluc cells (HCV replicon cells).

In data set [1], `CCOc1nc(N)nc2c1ncn2[C@@H]1O[C@@H]2COP(=O)(Oc3cccc(OP4(=O)OC[C@H]5O[C@@H](n6ccc(OC)nc6=O)[C@](C)(F)[C@@H]5O4)c3)O[C@H]2[C@@]1(C)F` (stereo partly shown) [Compound 10] had a CC50 of more than 50 µM. In data set [2], the EC50 was less than 0.25 µM.

With `CCOc1nc(N)nc2c1ncn2[C@@H]1O[C@@H]2COP(=O)(Oc3cccc(OP4(=O)OC[C@H]5O[C@@H](n6cnc7c(OCC)nc(N)nc76)[C@](C)(F)[C@@H]5O4)c3)O[C@H]2[C@@]1(C)O` (stereo partly shown) [Compound 9], the CC50 in data set [1] was more than 50 µM. Further, the EC50 in data set [2] is less than 0.25 µM.

The compound `CCOc1nc(N)nc2c1ncn2[C@@H]1O[C@H](COP(=O)(Oc2ccccc2)N2CCN(P(=O)(OC[C@H]3O[C@@H](n4cnc5c(OC)nc(N)nc54)[C@](C)(O)[C@@H]3O)Oc3ccccc3)CC2)[C@@H](O)[C@@]1(C)F` (stereo partly shown) [Compound 4] showed a CC50 in data set [1] of more than 50 µM. Besides, the EC50 in data set [2] is more than 10 µM.

In turn, `CCOc1nc(N)nc2c1ncn2[C@@H]1O[C@@H]2COP(=O)(Oc3cccc(OP4(=O)OC[C@H]5O[C@@H](n6cnc7c(OCC)nc(N)nc76)[C@](C)(O)[C@@H]5O4)c3)O[C@H]2[C@@]1(C)O` (stereo partly shown) [Compound 12] came in with a CC50 in data set [1] of more than 50 µM. Further, in data set [2], the EC50 lay within 0.25 to 1 µM.

In the case of `CCOc1nc(N)nc2c1ncn2[C@@H]1O[C@@H]2COP(=O)(Oc3cccc(OP4(=O)OC[C@H]5O[C@@H](n6ccc(=O)[nH]c6=O)[C@](C)(F)[C@@H]5O4)c3)O[C@H]2[C@@]1(C)F` (stereo partly shown) [Compound 8], the CC50 in data set [1] is more than 50 µM. For the same compound, the 50% effective concentration (EC50) in data set [2] is less than 0.25 µM.

In data set [1], `CCOc1nc(N)nc2c1ncn2[C@@H]1OC(COP2(=O)OCC3(CO2)COP(=O)(OCC2O[C@@H](n4cnc5c(OCC)nc(N)nc54)[C@](C)(F)[C@@H]2O)OC3)[C@@H](O)[C@@]1(C)F` (stereo partly shown) [Compound 7] had a CC50 of more than 50 µM. In addition, the EC50 in data set [2] was more than 10 µM.

`CCOc1nc(N)nc2c1ncn2[C@@H]1O[C@@H]2COP(=O)(OC3CCC(OP4(=O)OC[C@H]5O[C@@H](n6cnc7c(OCC)nc(N)nc76)[C@](C)(F)[C@@H]5O4)CC3)O[C@H]2[C@@]1(C)F` (stereo partly shown) [Compound 13] gave a CC50 in data set [1] of more than 50 µM. In data set [2], the EC50 lay within 1 to 10 µM.

Compound `COc1nc(N)nc2c1ncn2[C@@H]1O[C@H](COP(=O)(NCCNP(=O)(OC[C@H]2O[C@@H](n3cnc4c(OC)nc(N)nc43)[C@](C)(O)[C@@H]2O)Oc2ccccc2)Oc2ccccc2)[C@@H](O)[C@@]1(C)O` (stereo partly shown) [Compound 6] gave a CC50 in data set [1] of more than 50 µM. Moreover, the EC50 in data set [2] is more than 10 µM.

As to `CCOc1nc(N)nc2c1ncn2[C@@H]1O[C@@H]2COP(=O)(NCCNP3(=O)OC[C@H]4O[C@@H](n5cnc6c(OCC)nc(N)nc65)[C@](C)(F)[C@@H]4O3)O[C@H]2[C@@]1(C)F` (mixture of isomers) [Compound 3], the EC50 in data set [2] lay in the range of 1 to 10 µM. Moreover, the CC50 at 72 h in data set [3] is more than 50 µM.

Take `CCOc1nc(N)nc2c1ncn2[C@@H]1O[C@@H]2COP(=O)(NCCCCCCNP3(=O)OC[C@H]4O[C@@H](n5cnc6c(OCC)nc(N)nc65)[C@](C)(F)[C@@H]4O3)O[C@H]2[C@@]1(C)F` (stereo partly shown) [Compound 14]: the EC50 in data set [2] is 1 to 10 µM. Also, in data set [3], the CC50 at 72 h was more than 50 µM.

In turn, `CCOc1nc(N)nc2c1ncn2[C@@H]1O[C@H](COP(=O)(NCCNP(=O)(OC[C@H]2O[C@@H](n3cnc4c(OC)nc(N)nc43)[C@](C)(O)[C@@H]2O)Oc2ccccc2)Oc2ccccc2)[C@@H](O)[C@@]1(C)F` (stereo partly shown) [Compound 5] yielded a CC50 in data set [1] of more than 50 µM. Further, the EC50 in data set [2] is more than 10 µM.
